Measured values taken from article PMC12419922, “Myristoylated Cathelicidin-DM Fused With ANG1-7: A Novel Self-Assembling Antimicrobial Peptide for the Treatment and Mechanism of Diabetic Infected Wounds” (Journal of Diabetes Research, 2025).
Like-named read-outs stand apart in the source and are kept apart here. Where no end group is shown, it is not given here. The star is where a group is joined. Myristoyl = CCCCCCCCCCCCCC(=O)*

Legend:
E. coli (ATCC 25922) = test: MIC and growth inhibition, broth microdilution; format: cell-based, Escherichia coli
Description: The minimum inhibitory concentrations (MICs) of DM and MYR-DM-ANG1-7 were determined using the broth microdilution method. E. coli (ATCC 25922) and S. aureus (ATCC 25923) were cultured overnight in Mueller–Hinton broth (MHB) at 37°C. The cultures were diluted to 2 × 10^5 CFU/mL. The peptides were serially diluted in 10 mM phosphate-buffered solution (PBS) and added to a 96-well plate. The bacterial suspensions were mixed with an equal volume of peptide solution and incubated at 37°C for 18 h. Bacterial growth inhibition was determined by measuring the absorbance at 600 nm using a M200 multiwavelength microplate reader (Infinite M200 PRO, Switzerland). Subsequently, bacterial suspensions were treated with 1 × MIC, 2 × MIC, 3 × MIC, and 4 × MIC concentrations of the AMPs and sampled at 0, 3, 6, 12, 18, and 24 h. The absorbance was measured at 600 nm. The experiment was repeated three times.

[1] = test system: mouse red blood cell suspension; settings: 37°C, 60 min, OD 590 nm, 0.1% Triton X-100 positive control
Description: In order to evaluate the hemolytic activity of self-assembled peptides on normal mammalian cells, fresh blood of normal mice was collected, and heparin sodium was anticoagulated and stored. After centrifugation at 4°C and 3000 rpm for 10 min, the precipitate was collected, washed, and centrifuged with normal saline for three times and then resuspended at 10% (v/v). We mix 100 μL of different concentrations of drugs with 100 μL of mouse red blood cell suspension, incubate in a constant temperature oscillation incubator at 37°C for 60 min, then take out and centrifuge according to the above setting, absorb 100 μL of supernatant, put it in a 96-well cell culture plate, and measure the OD value at 590 nm by M200 full-band enzyme-labeled instrument (Infinite M200 Pro, Switzerland). Then, 100 μL of 0.1% Triton X-100 solution was used as a positive control and PBS as a negative control. According to the formula, hemolysis (%) = (experimental group OD value − negative control OD value)/(positive control OD value − negative control OD value) × 100%.

S. aureus biofilms = test: Antibiofilm activity, crystal violet staining and colony counting; format: cell-based, Staphylococcus aureus; settings: different concentrations, 37°C, 24 h, crystal violet OD 595 nm and viable count
Description: E. coli (ATCC 25922) and S. aureus (ATCC 25923) were cultured overnight in MHB medium at 37°C. The bacterial suspension was diluted to 100 times and added to a 12-well plate (500 μL/well). Each peptide with a different concentration was added to the corresponding well plate and incubated at 37°C for 24 h. After incubation, 100 μL of culture supernatant was discarded. The biofilm was fixed with 100 μL of 100% methanol for 15 min, then air-dried, then dyed with 0.1% crystal violet (CV) for 30 mins, and washed with distilled water three times. After adding 200 μL of 95% ethanol, the inhibition rate of the biofilm was calculated by measuring the OD value at 595 nm with Infinite M200 PRO, Switzerland. After ultrasonic treatment, the biofilm was fully dispersed into single cells, and the cell suspension was diluted to a suitable concentration for colony counting. All experiments were repeated three times.
The formation of bacterial biofilms in the wounds of DFU patients is the main cause of bacterial resistance. By measuring the antibiofilm ability, the inhibitory and clearing effects of drugs on biofilms can be assessed. In the case of preventing biofilm formation, E. coli and S. aureus were cultured in LB nutrient medium with different concentrations of the novel AMP MYR-DM-ANG1-7 in 24-well plates at 37°C and incubate for 24 h. […]

HUVECs = test: MDA, thiobarbituric acid method; format: cell-based, human; settings: HUVEC supernatant, HG + LPS (HG + LPS increased by 1.65 times); n = 3
Description: The level of MDA was determined by the thiobarbituric acid (TBA) method. Briefly, 100 μL of cell supernatant was mixed with 200 μL of a 10% trichloroacetic acid solution of 0.67% TBA. The mixture was incubated at 95°C for 30 min, cooled on ice, and centrifuged at 12,000 × g at 4°C for 10 min. The absorbance of the supernatant was measured at 532 nm using an enzyme-labeled instrument. The experiments were repeated three times.

**Q.** “Myristoyl-SSRRKPCKGWLCKLKLRGGYTLIGSATNLNRPTYVRAGGGDRVYIHP (cysteines drawn unpaired) [MYR-DM-ANG1-7]” was tested. Which “growth of E. coli (inhibition curve)” value (E. coli (ATCC 25922); 4 × MIC (128 μg/mL), OD 600 nm at 0-24 h, repeated three times) did it give?
**A.** Its value is “completely inhibit”.

**Q.** What about the Minimum inhibitory concentration (E. coli (ATCC 25922); E. coli ATCC 25922, broth microdilution, MHB, 2 × 10^5 CFU/mL, 37°C, 18 h, absorbance 600 nm) of the same substance?
**A.** The Minimum inhibitory concentration was 12 µg/mL.

**Q.** What about the “increase of antibacterial efficacy compared to DM” value (E. coli (ATCC 25922); from MIC values against S. aureus and E. coli) of the same substance?
**A.** Its value is 1.3 fold.

**Q.** What about the “hemolysis rate of red blood cells” value ([1]; 128 μg/mL) of the same substance?
**A.** Its value is 6.01%.

**Q.** And the “hemolysis rate of red blood cells” value ([1]; 8-64 μg/mL)?
**A.** The value was “less than 5%”.

**Q.** And the “formation of S. aureus biofilms” value (S. aureus biofilms)?
**A.** Its value is “effectively inhibit”.

**Q.** And the “secretion of MDA, decreased by” value (HUVECs)?
**A.** The value was 0.51 times.
